Test results published in ChEMBL document CHEMBL5579851, “Synthesis and antifungal evaluation of novel triazole derivatives bearing a pyrazole-methoxyl moiety” (Eur J Med Chem, 2024).
Values after ≈ are worked out from the molar mass of the structure shown. Active and inactive are the calls of the source. No cut-off for these calls is given here.

Columns and labels:
[1] = target: T1, Lanosterol 14-alpha demethylase (Candida albicans (strain SC5314 / ATCC MYA-2876) (Yeast), UniProt P10613); experiment: Inhibition of CYP51 in Candida albicans SC5314 assessed as eburicol level at 0.0625 ug/ml after 8 hrs by GC-MS analysis relative to control; set-up: scale not given: the % may be the effect or the level left; details: at 0.0625 µg/mL
Candida tropicalis [2] = experiment: Potency index, ratio of ravuconazole MIC to test compound MIC for antifungal activity against Candida tropicalis 8915 assessed as inhibition of fungal growth incubated for 48 hrs by CLSI based broth microdilution assay; assay type: functional
Candida tropicalis [3] = experiment: Potency index, ratio of fluconazole MIC to test compound MIC for antifungal activity against Candida tropicalis 8915 assessed as inhibition of fungal growth incubated for 48 hrs by CLSI based broth microdilution assay; assay type: functional
Saccharomyces cerevisiae [4] = experiment: Antifungal activity against recombinant Saccharomyces cerevisiae Y2411 overexpressing ScErg11 assessed as inhibition of fungal growth incubated for 48 hrs by CLSI based broth microdilution assay; assay type: functional
Pichia kudriavzevii = experiment: Antifungal activity against Candida krusei 4996 assessed as inhibition of fungal growth incubated for 48 hrs by CLSI based broth microdilution assay; assay type: functional
[5] = Cytotoxicity against HUVEC cells assessed as cell viability at 128 ug/ml incubated for 24 hrs by CCK-8 assay relative to control; assay type: toxicity, cell-based; details: human, at 128 µg/mL, read-out: Activity
[Candida] auris [6] = Antifungal activity against fluconazole-resistant Candida auris 919 assessed as inhibition of fungal growth incubated for 48 hrs by CLSI based broth microdilution assay; assay type: functional; details: Candidozyma auris
Candida albicans [7] = experiment: Antifungal activity against fluconazole-resistant Candida albicans 901 assessed as inhibition of fungal growth incubated for 48 hrs by CLSI based broth microdilution assay; assay type: functional
Saccharomyces cerevisiae [8] = experiment: Antifungal activity against recombinant Saccharomyces cerevisiae Y525 overexpressing CaMdr1 assessed as inhibition of fungal growth incubated for 48 hrs by CLSI based broth microdilution assay; assay type: functional
Nakaseomyces glabratus [9] = experiment: Antifungal activity against Candida glabrata 537 assessed as inhibition of fungal growth at 2 ug/ml measured up to 48 hrs by TECAN plate reader analysis; assay type: functional, organism-based; details: dose 2.0 µg/ml
Candida albicans [10] = experiment: Antifungal activity against Candida albicans SC5314 assessed as inhibition of hyphae formation at 0.625 ug/ml after 3 hrs by inverted microscopic analysis relative to control; assay type: functional
Candida albicans [11] = experiment: Antibiofilm activity against Candida albicans SC5314 assessed as increase in matured biofilm distruption incubated for 24 hrs by XTT assay; assay type: functional, organism-based; details: dose 0.25-64 µg/ml
Candida albicans [12] = experiment: Antibiofilm activity against Candida albicans SC5314 assessed as inhibition of biofilm formation at 64 ug/mL incubated for 24 hrs by XTT assay relative to control; assay type: functional
Saccharomyces cerevisiae [13] = experiment: Antifungal activity against recombinant Saccharomyces cerevisiae Y570 overexpressing CaCdr1 assessed as inhibition of fungal growth incubated for 48 hrs by CLSI based broth microdilution assay; assay type: functional
Saccharomyces cerevisiae [14] = experiment: Antifungal activity against recombinant Saccharomyces cerevisiae Y2301 overexpressing ScErg11 Y140F mutant assessed as inhibition of fungal growth incubated for 48 hrs by CLSI based broth microdilution assay; assay type: functional
Candida albicans [15] = experiment: Antifungal activity against Candida albicans SC5314 assessed as inhibition of fungal growth incubated for 48 hrs by CLSI based broth microdilution assay; assay type: functional
[16] = target: T1, Lanosterol 14-alpha demethylase; experiment: Inhibition of CYP51 in Candida albicans SC5314 assessed as 14alpha-methylfecosterol level at 0.0625 ug/ml after 8 hrs by GC-MS analysis relative to control; set-up: scale not given: the % may be the effect or the level left; details: at 0.0625 µg/mL
Candida parapsilosis [17] = experiment: Antifungal activity against Candida parapsilosis 22019 assessed as inhibition of fungal growth at 0.125 ug/ml measured up to 48 hrs by TECAN plate reader analysis; assay type: functional, organism-based; details: dose 0.125 µg/ml
Saccharomyces cerevisiae [18] = experiment: Antifungal activity against recombinant Saccharomyces cerevisiae Y2374 overexpressing CgErg11 assessed as inhibition of fungal growth incubated for 48 hrs by CLSI based broth microdilution assay; assay type: functional
Saccharomyces cerevisiae [19] = experiment: Antifungal activity against recombinant Saccharomyces cerevisiae Y2513 overexpressing ScErg11 Y140H mutant assessed as inhibition of fungal growth incubated for 48 hrs by CLSI based broth microdilution assay; assay type: functional
Candida albicans [20] = experiment: Antifungal activity against Candida albicans SC5314 assessed as inhibition of fungal growth at 0.125 ug/ml after 48 hrs by TECAN plate reader analysis relative to control; assay type: functional
Saccharomyces cerevisiae [21] = experiment: Antifungal activity against recombinant Saccharomyces cerevisiae Y2459 overexpressing CaErg11/CaCpr assessed as inhibition of fungal growth incubated for 48 hrs by CLSI based broth microdilution assay; assay type: functional
Saccharomyces cerevisiae [22] = experiment: Antifungal activity against recombinant Saccharomyces cerevisiae Y2766 overexpressing CauCdr1 assessed as inhibition of fungal growth incubated for 48 hrs by CLSI based broth microdilution assay; assay type: functional
[Candida] auris [23] = Antifungal activity against fluconazole-resistant Candida auris 918 assessed as inhibition of fungal growth incubated for 48 hrs by CLSI based broth microdilution assay; assay type: functional; details: Candidozyma auris
Saccharomyces cerevisiae [24] = experiment: Antifungal activity against recombinant Saccharomyces cerevisiae Y2769 overexpressing CauErg11 K143R mutant assessed as inhibition of fungal growth incubated for 48 hrs by CLSI based broth microdilution assay; assay type: functional
Nakaseomyces glabratus [25] = experiment: Antifungal activity against Candida glabrata 537 assessed as inhibition of fungal growth incubated for 48 hrs by CLSI based broth microdilution assay; assay type: functional
Saccharomyces cerevisiae [26] = experiment: Antifungal activity against recombinant Saccharomyces cerevisiae Y2765 overexpressing CauMdr1 assessed as inhibition of fungal growth incubated for 48 hrs by CLSI based broth microdilution assay; assay type: functional
Saccharomyces cerevisiae [27] = experiment: Antifungal activity against recombinant Saccharomyces cerevisiae Y2711 overexpressing CnErg11 assessed as inhibition of fungal growth incubated for 48 hrs by CLSI based broth microdilution assay; assay type: functional
[28] = target: T1, Lanosterol 14-alpha demethylase; experiment: Inhibition of CYP51 in Candida albicans SC5314 assessed as lanosterol level at 0.0625 ug/ml after 8 hrs by GC-MS analysis (reference value: 5.9 %); set-up: scale not given: the % may be the effect or the level left; details: at 0.0625 µg/mL
Cryptococcus neoformans = experiment: Antifungal activity against Cryptococcus neoformans 32609 assessed as inhibition of fungal growth incubated for 72 hrs by CLSI based broth microdilution assay; assay type: functional
[29] = target: T1, Lanosterol 14-alpha demethylase; experiment: Inhibition of CYP51 in Candida albicans SC5314 assessed as ergosterol level at 0.0625 ug/ml after 8 hrs by GC-MS analysis (reference value: 86.2 %); set-up: scale not given: the % may be the effect or the level left; details: at 0.0625 µg/mL
Candida albicans [30] = experiment: Antifungal activity against Candida albicans SC5314 assessed as inhibition of hyphae length after 3 hrs by inverted microscopic analysis; assay type: functional, organism-based; details: dose 0.0625-1 µg/ml
Candida albicans [31] = experiment: Antifungal activity against Candida albicans 10231 assessed as inhibition of fungal growth incubated for 48 hrs by CLSI based broth microdilution assay; assay type: functional
Saccharomyces cerevisiae [32] = experiment: Antifungal activity against recombinant Saccharomyces cerevisiae Y2716 overexpressing CpErg11 Y132F mutant/ CpCpr assessed as inhibition of fungal growth incubated for 48 hrs by CLSI based broth microdilution assay; assay type: functional
Saccharomyces cerevisiae [33] = experiment: Antifungal activity against recombinant Saccharomyces cerevisiae Y2767 overexpressing CauErg11 assessed as inhibition of fungal growth incubated for 48 hrs by CLSI based broth microdilution assay; assay type: functional
[Candida] auris [34] = Antifungal activity against fluconazole-resistant Candida auris 891 assessed as inhibition of fungal growth incubated for 48 hrs by CLSI based broth microdilution assay; assay type: functional; details: Candidozyma auris
[35] = target: T1, Lanosterol 14-alpha demethylase; experiment: Inhibition of CYP51 in Candida albicans SC5314 assessed as obtusifoliol level at 0.0625 ug/ml after 8 hrs by GC-MS analysis relative to control; set-up: scale not given: the % may be the effect or the level left; details: at 0.0625 µg/mL
Saccharomyces cerevisiae [36] = experiment: Antifungal activity against recombinant Saccharomyces cerevisiae Y2300 overexpressing ScErg11 assessed as inhibition of fungal growth incubated for 48 hrs by CLSI based broth microdilution assay; assay type: functional
Saccharomyces cerevisiae [37] = experiment: Selectivity index, ratio of MIC for antifungal activity against recombinant Saccharomyces cerevisiae Y525 overexpressing CaMdr1 to MIC for antifungal activity against recombinant Saccharomyces cerevisiae Y2411 overexpressing ScErg11; assay type: functional
Candida tropicalis [38] = experiment: Antifungal activity against Candida tropicalis 8915 assessed as inhibition of fungal growth incubated for 48 hrs by CLSI based broth microdilution assay; assay type: functional
Saccharomyces cerevisiae [39] = experiment: Antifungal activity against recombinant Saccharomyces cerevisiae Y2721 overexpressing CpErg11/CpCpr assessed as inhibition of fungal growth incubated for 48 hrs by CLSI based broth microdilution assay; assay type: functional
Saccharomyces cerevisiae [40] = experiment: Antifungal activity against recombinant Saccharomyces cerevisiae Y2768 overexpressing CauErg11 T132F mutant assessed as inhibition of fungal growth incubated for 48 hrs by CLSI based broth microdilution assay; assay type: functional
Saccharomyces cerevisiae [41] = experiment: Antifungal activity against recombinant Saccharomyces cerevisiae Y2462 overexpressing ScErg11/ScNcp1 assessed as inhibition of fungal growth incubated for 48 hrs by CLSI based broth microdilution assay; assay type: functional
Candida albicans [42] = experiment: Antifungal activity against fluconazole-resistant Candida albicans 904 assessed as inhibition of fungal growth incubated for 48 hrs by CLSI based broth microdilution assay; assay type: functional
Candida parapsilosis [43] = experiment: Antifungal activity against Candida parapsilosis 22019 assessed as inhibition of fungal growth incubated for 48 hrs by CLSI based broth microdilution assay; assay type: functional; details: Lodderomyces parapsilosis
Candida albicans [44] = experiment: Antibiofilm activity against Candida albicans SC5314 assessed as increase in matured biofilm distruption at 64 ug/ml incubated for 24 hrs by XTT assay relative to control; assay type: functional; details: dose 64 µg/ml

T1 sequence (P10613 whole entry): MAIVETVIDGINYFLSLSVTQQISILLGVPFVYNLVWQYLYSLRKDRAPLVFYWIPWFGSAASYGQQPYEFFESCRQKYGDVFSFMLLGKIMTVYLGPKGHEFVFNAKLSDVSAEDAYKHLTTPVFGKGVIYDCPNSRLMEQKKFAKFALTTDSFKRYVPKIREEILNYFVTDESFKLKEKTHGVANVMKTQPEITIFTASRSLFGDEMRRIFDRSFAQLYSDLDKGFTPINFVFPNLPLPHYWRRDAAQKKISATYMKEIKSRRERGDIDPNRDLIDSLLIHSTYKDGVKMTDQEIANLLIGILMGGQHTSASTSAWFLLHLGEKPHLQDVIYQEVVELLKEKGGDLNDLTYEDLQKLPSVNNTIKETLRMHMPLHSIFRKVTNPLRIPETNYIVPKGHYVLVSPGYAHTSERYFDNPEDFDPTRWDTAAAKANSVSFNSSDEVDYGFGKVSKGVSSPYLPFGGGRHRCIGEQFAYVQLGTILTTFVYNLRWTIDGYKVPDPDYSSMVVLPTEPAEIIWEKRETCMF

C[C@@H](OCc1ccn(Cc2ccc(F)cc2)n1)[C@](O)(Cn1cncn1)c1ccc(F)cc1F
Activity [1]: ~ 20% | Ratio (Candida tropicalis [2]): 32 | Ratio (Candida tropicalis [3]): 256 | MIC (Saccharomyces cerevisiae [4]): 0.016 µg/mL | MIC (Pichia kudriavzevii): 4 µg/mL (≈ 8.74 µM) | viability at 24 h, 128 ug/ml [5]: 75.8% | MIC ([Candida] auris [6]): 16 µg/mL (≈ 35 µM) | MIC (Candida albicans [7]): 2 µg/mL (≈ 4.37 µM) | MIC (Saccharomyces cerevisiae [8]): 0.25 µg/mL | inhibition (Nakaseomyces glabratus [9]): inactive | inhibition at 0.625 µg/mL (Candida albicans [10]): 100% | Activity (Candida albicans [11]): Dose-Dependent Effect | inhibition at 64 µg/mL (Candida albicans [12]): > 55% | MIC (Saccharomyces cerevisiae [13]): 32 µg/mL | MIC (Saccharomyces cerevisiae [14]): 0.0313 µg/mL | MIC (Candida albicans [15]): ≤ 0.125 µg/mL | Activity [16]: ~ 20% | inhibition (Candida parapsilosis [17]): Active | MIC (Saccharomyces cerevisiae [18]): 0.0313 µg/mL | MIC (Saccharomyces cerevisiae [19]): 0.016 µg/mL | inhibition at 0.125 µg/mL (Candida albicans [20]): 100% | MIC (Saccharomyces cerevisiae [21]): 0.0313 µg/mL | MIC (Saccharomyces cerevisiae [22]): 4 µg/mL | MIC ([Candida] auris [23]): 16 µg/mL (≈ 35 µM) | MIC (Saccharomyces cerevisiae [24]): 0.063 µg/mL | MIC (Nakaseomyces glabratus [25]): ≤ 0.125 µg/mL | MIC (Saccharomyces cerevisiae [26]): 0.25 µg/mL | MIC (Saccharomyces cerevisiae [27]): 0.008 µg/mL | Activity [28]: > 25% | MIC (Cryptococcus neoformans): 0.25 µg/mL (≈ 0.547 µM) | Activity [29]: 1.4% | inhibition (Candida albicans [30]): Dose-Dependent Effect | MIC (Candida albicans [31]): ≤ 0.125 µg/mL | MIC (Saccharomyces cerevisiae [32]): 0.125 µg/mL | MIC (Saccharomyces cerevisiae [33]): 0.0313 µg/mL | MIC ([Candida] auris [34]): 16 µg/mL (≈ 35 µM) | Activity [35]: ~ 20% | MIC (Saccharomyces cerevisiae [36]): 0.063 µg/mL | Ratio (Saccharomyces cerevisiae [37]): 16 | MIC (Candida tropicalis [38]): 0.25 µg/mL (≈ 0.547 µM) | MIC (Saccharomyces cerevisiae [39]): 0.0313 µg/mL | MIC (Saccharomyces cerevisiae [40]): 0.063 µg/mL | MIC (Saccharomyces cerevisiae [41]): 0.125 µg/mL | MIC (Candida albicans [42]): 8 µg/mL (≈ 17.5 µM) | MIC (Candida parapsilosis [43]): 0.25 µg/mL (≈ 0.547 µM) | Activity (Candida albicans [44]): 49.2%

CC(=O)N1CCN(c2ccc(OCC3COC(Cn4ccnc4)(c4ccc(Cl)cc4Cl)O3)cc2)CC1 (centres undefined) [KETOCONAZOLE]
MIC (Saccharomyces cerevisiae [4]): 0.25 µg/mL | MIC (Saccharomyces cerevisiae [8]): 0.25 µg/mL | MIC (Saccharomyces cerevisiae [13]): 64 µg/mL | MIC (Saccharomyces cerevisiae [14]): 2 µg/mL | MIC (Saccharomyces cerevisiae [18]): 0.5 µg/mL | MIC (Saccharomyces cerevisiae [19]): 1 µg/mL | MIC (Saccharomyces cerevisiae [21]): 0.5 µg/mL | MIC (Saccharomyces cerevisiae [22]): 8 µg/mL | MIC (Saccharomyces cerevisiae [24]): 1 µg/mL | MIC (Saccharomyces cerevisiae [26]): 0.25 µg/mL | MIC (Saccharomyces cerevisiae [27]): 8 µg/mL | MIC (Saccharomyces cerevisiae [32]): 2 µg/mL | MIC (Saccharomyces cerevisiae [33]): 0.5 µg/mL | MIC (Saccharomyces cerevisiae [36]): 1 µg/mL | MIC (Saccharomyces cerevisiae [39]): 0.5 µg/mL | MIC (Saccharomyces cerevisiae [40]): 1 µg/mL | MIC (Saccharomyces cerevisiae [41]): 1 µg/mL

C[C@@H]1[C@H](O)[C@@H](C)/C=C/C=C/C=C/C=C/C=C/C=C/C=C/[C@H](O[C@@H]2O[C@H](C)[C@@H](O)[C@H](N)[C@@H]2O)C[C@@H]2O[C@](O)(C[C@@H](O)C[C@@H](O)[C@H](O)CC[C@@H](O)C[C@@H](O)CC(=O)O[C@H]1C)C[C@H](O)[C@H]2C(=O)O [AMPHOTERICIN B]
viability at 24 h, 128 ug/ml [5]: 30.5%
